According to patent US12103919B2, “3-(5-oxy)-1-oxoisoindolin-2-yl)piperidine-2,6-dione derivatives and uses thereof” (NOVARTIS AG, priority 2021, dated 2024):
Where two headings read alike, the source gives them in different places.

Legend:
SALL4 = molecular target: T1, SALL4 (Homo sapiens, UniProt Q96SW2+Q9UJQ4); assay: Quantification of SALL4 protein levels in HiBiT tag fusion protein assay; type: cell-based; conditions: for SALL4 Amax: DMSO-normalized, curve-fitted percentage of SALL4-HiBiT remaining at 50 uM, mean over repeats; for DC50: arithmatic mean over number of repeats, 18 hours, top 50 μM, read-out: SALL4 AC50
T1 construct: expressed in transfected cells; host or cells: GripTite 293 MSR cells (293GT), ThermoFisher Scientific, stably transfected by electroporation, blasticidin-selected clones
T1 sequence (Q9UJQ4 whole entry, the tested form may be a part): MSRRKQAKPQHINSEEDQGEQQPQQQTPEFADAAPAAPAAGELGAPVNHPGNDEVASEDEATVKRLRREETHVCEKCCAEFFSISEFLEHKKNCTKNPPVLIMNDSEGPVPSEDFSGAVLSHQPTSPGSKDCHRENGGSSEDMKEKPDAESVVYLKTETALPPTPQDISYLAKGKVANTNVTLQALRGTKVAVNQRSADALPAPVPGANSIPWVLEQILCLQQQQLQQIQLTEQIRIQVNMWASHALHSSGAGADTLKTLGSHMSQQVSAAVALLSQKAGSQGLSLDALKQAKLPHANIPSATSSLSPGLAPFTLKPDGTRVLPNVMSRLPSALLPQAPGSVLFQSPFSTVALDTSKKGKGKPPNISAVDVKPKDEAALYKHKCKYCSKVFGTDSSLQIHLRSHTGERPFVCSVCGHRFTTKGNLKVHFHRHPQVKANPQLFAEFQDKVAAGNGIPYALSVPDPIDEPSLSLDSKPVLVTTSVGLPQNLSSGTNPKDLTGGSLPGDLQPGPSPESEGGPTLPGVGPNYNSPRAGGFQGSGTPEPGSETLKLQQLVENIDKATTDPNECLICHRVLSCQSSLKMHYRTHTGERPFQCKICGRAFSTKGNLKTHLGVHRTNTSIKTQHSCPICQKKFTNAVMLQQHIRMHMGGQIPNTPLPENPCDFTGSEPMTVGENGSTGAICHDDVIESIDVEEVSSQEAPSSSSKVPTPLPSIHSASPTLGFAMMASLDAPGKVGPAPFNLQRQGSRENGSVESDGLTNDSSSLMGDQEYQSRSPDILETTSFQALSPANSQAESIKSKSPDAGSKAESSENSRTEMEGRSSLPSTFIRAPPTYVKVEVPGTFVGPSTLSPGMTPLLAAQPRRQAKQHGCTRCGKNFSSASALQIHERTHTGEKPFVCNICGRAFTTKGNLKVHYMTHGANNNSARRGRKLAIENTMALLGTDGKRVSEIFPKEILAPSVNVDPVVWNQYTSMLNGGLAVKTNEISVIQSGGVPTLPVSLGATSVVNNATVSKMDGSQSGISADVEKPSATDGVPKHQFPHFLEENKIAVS
T1 sequence (Q96SW2 whole entry, the tested form may be a part): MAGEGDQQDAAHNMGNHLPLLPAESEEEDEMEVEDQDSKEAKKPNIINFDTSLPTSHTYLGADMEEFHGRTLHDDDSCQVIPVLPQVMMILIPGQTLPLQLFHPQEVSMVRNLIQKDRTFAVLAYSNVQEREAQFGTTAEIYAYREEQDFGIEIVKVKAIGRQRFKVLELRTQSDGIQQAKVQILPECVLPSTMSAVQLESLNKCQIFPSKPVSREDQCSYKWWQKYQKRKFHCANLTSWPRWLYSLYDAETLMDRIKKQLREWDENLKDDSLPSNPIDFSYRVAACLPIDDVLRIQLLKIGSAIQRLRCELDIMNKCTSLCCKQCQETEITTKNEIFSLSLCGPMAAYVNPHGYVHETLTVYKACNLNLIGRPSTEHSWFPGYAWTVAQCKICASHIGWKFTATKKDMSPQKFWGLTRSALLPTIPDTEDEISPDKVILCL
T1 sequence (Q16531 whole entry partner, the tested form may be a part): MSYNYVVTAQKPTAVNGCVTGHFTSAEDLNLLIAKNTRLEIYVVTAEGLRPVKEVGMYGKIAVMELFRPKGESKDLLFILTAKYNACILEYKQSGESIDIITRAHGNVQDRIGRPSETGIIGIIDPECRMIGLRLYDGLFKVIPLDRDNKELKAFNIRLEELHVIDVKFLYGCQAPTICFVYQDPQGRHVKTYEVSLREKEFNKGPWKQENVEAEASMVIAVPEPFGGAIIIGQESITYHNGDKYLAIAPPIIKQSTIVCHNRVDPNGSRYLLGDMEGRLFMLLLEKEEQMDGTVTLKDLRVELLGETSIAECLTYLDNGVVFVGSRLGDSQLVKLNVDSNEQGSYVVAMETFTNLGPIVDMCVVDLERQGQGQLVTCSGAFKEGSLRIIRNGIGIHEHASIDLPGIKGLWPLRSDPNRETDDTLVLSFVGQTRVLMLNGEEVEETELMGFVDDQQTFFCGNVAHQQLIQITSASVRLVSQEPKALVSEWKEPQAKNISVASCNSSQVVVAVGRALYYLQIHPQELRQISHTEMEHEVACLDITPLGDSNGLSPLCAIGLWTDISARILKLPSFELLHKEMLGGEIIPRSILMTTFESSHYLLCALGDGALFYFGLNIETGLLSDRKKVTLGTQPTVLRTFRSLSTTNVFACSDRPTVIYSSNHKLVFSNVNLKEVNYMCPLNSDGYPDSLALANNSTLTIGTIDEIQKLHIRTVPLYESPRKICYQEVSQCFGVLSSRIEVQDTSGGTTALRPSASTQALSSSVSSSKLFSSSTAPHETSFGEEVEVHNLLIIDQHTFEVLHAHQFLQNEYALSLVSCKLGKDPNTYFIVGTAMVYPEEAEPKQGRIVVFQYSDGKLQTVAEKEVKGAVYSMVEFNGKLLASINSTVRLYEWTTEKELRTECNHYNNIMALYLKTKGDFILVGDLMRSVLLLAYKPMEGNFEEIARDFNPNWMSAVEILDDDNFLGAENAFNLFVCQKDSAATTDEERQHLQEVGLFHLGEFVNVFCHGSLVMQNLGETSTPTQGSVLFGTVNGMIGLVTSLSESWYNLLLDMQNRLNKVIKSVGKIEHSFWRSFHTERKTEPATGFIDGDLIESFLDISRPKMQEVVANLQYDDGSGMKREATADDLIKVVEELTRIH
Protocol: The HiBiT system from Promega was used to develop high-throughput and quantitative assays to measure changes in SALL4 protein levels in response to compounds. The HiBiT tag was derived from a split Nanoluciferase and has the following protein sequence: […] (SEQ ID No: 1). The complementary fragment of Nanoluciferase (known as LgBiT, from Promega), was added to the HiBiT tag to form an active Nanoluciferase enzyme whose activity can be precisely measured. In this way, the levels of a fusion protein with the HiBiT tag can be quantified in cell lysates.
DNA constructs, based on the Invitrogen pLenti6.2/V5 DEST backbone, were constructed with the HiBiT tag upstream of SALL4 and expressed the fusion protein from a CMV promotor.
To ensure moderate and consistent expression of the HiBiT-SALL4 fusion protein across all cells in the population, stable cell lines were derived from clones. GripTite 293 MSR cells (293GT) from ThermoFisher Scientific (Catalog number: CRL-R79507), were stably transfected with prepared constructs via electroporation. Following recovery, cells were selected by 10 ug/mL blasticidin in culture media.
The levels of HiBiT-SALL4 tagged fusion proteins in compound-treated cell lines were measured as follows:
On day 1, cells were diluted to 1.0×10^6 cells/ml in normal growth medium. 20 μL of cell suspension were plated in each well of a solid white 384-well plate. Plates were incubated overnight in a 37° C. and 5% CO2 humidified tissue culture incubator.
On day 2, serial dilutions of compounds were made in 384-well plates. Compound plates were set up with DMSO in columns 1, 2, 23, 24, and 10-point compound dilution series in column 3-12 and column 13-22. 10 mM stock solution of compound were placed into column 3 or 13 and a 1:5 serial dilution was carried out until there was a 10-point dilution series per compound. 100 nL of diluted compounds were transferred into the plated cells by Echo® (Labcyte) acoustic transfer. The highest concentration of compound was 50 μM. Plates were incubated overnight (18 hours) in a 37° C. and 5% CO2 humidified tissue culture incubator.
On day 3, plates were removed from the incubator and allowed to equilibrate at room temperature for 60 minutes. HiBiT substrate (Nano-Glo® HiBit Lytic Detection System, Promega Catalogue number: N3050) was added as described by the manufacturers protocols. Plates were incubated at room temperature for 30 minutes and luminescence was read using an EnVision® reader (PerkinElmer®). Data was analyzed and visualized using the Spotfire® software package.
SALL4 Amax reflects the DMSO-normalized, curve-fitted percentage of SALL4-HiBiT remaining at 50 uM. It was calculated by normalizing DMSO controls to 100%, parametric curve fitting of the dose response data (10-point, 5-fold), followed by calculation of response at 50 uM using the fitted equation.
This assay produced a range of SALL4 AC50 and Amax values over several repeat runs due to normal variations in the assay. For a comparison to the compounds described in PCT/IB2020/062070, the arithmatic mean values are reported over the number of repeats specified. […] The compounds of the present disclosure are therefore expected to have improved toxicological properties (Matyskiela, M. E., Couto, S., Zheng, X. et al. SALL4 mediates teratogenicity as a thalidomide-dependent cereblon substrate. Nat Chem Biol 14, 981-987 (2018); Donovan, K. A. et al. Thalidomide promotes degradation of SALL4, a transcription factor Implicated in Duane Radial Ray syndrome. eLife 2018; 7:e38430).

Fetal Hemoglobin (HbF) = assay: Small molecule HbF induction assay in erythroid-differentiated mPB CD34+ cells (flow cytometry); type: cell-based, human; conditions: highest percentage of cells staining positive for HbF (% HbF+ cells) in fitted dose-response curve; DMSO baseline approximately 30-40%
Protocol: Cryopreserved primary human CD34^+ hematopoietic stem and progenitor cells were obtained from AllCeIIs, LLC. The CD34^+ cells were isolated from the peripheral blood of healthy donors after mobilization by administration of granulocyte colony-stimulating factor. Cells were differentiated ex vivo toward the erythroid lineage using a 2-phase culture method. In the first phase, cells were cultured in Stemspan™ Serum-Free Expansion Media (SFEM) ([…] Technologies Inc.) supplemented with rhSCF (50 ng/mL, Peprotech®, Inc.), rhlL-6 (50 ng/mL, Peprotech®, Inc.), rhlL-3 (50 ng/mL, Peprotech®, Inc.), and rhFlt3L (50 ng/mL, Peprotech®, Inc.), and 1× antibiotic-antimycotic (Life Technologies, Thermo Fisher Scientific) for 6 days at 37° C. with 5% CO2. During the second phase, cells were cultured in erythroid differentiation media at 5,000 cells/mL in the presence of compound for 7 days at 37° C. with 5% […]. Erythroid Differentiation Media is comprised of IMDM (Life Technologies) supplemented with insulin (10 μg/mL. Sigma Aldrich), heparin (2 U/mL Sigma Aldrich), holo-transferrin (330 μg/mL, Sigma Aldrich), human serum AB (5%, Sigma Aldrich), hydrocortisone (1 μM, […] Technologies), rhSCF (100 ng/mL, Peprotech®, Inc.), rhIL-3 (5 ng/mL. Peprotech®, Inc.), rhEPO (3 U/mL, Peprotech®, Inc.), and 1× antibiotic-antimycotic. All compounds were dissolved and diluted into dimethylsulfoxide (DMSO) and were added to culture media for a final concentration of 0.3% DMSO for testing in a 10-point, 1:3 dilution series starting at 10 uM.
For viability analysis, samples were washed and resuspended in phosphate-buffered saline (PBS) and stained with LlVE/DEAD™ Fixable Violet Dead Cell Stain Kit (Life Technologies, L34963) for 20 minutes. Cells were then washed again with PBS and resuspended in PBS supplemented with 2% fetal bovine serum (FBS), and 2 mM EDTA to prepare for cell surface marker analysis. […]
mPB CD34+ cells were expanded for 6 days, then erythroid differentiated in the presence of compound for 7 days. Cells were fixed, stained and analyzed by flow cytometry. […]

WIZ = molecular target: T2, WIZ (Homo sapiens, UniProt O95785+Q96SW2); assay: Quantification of WIZ protein levels in HiBit tag fusion protein assay (293T cells); type: cell-based; parameters: Dmax: dose or concentration left out as unconfirmed
T2 construct: expressed in transfected cells
T2 sequence (O95785 whole entry, the tested form may be a part): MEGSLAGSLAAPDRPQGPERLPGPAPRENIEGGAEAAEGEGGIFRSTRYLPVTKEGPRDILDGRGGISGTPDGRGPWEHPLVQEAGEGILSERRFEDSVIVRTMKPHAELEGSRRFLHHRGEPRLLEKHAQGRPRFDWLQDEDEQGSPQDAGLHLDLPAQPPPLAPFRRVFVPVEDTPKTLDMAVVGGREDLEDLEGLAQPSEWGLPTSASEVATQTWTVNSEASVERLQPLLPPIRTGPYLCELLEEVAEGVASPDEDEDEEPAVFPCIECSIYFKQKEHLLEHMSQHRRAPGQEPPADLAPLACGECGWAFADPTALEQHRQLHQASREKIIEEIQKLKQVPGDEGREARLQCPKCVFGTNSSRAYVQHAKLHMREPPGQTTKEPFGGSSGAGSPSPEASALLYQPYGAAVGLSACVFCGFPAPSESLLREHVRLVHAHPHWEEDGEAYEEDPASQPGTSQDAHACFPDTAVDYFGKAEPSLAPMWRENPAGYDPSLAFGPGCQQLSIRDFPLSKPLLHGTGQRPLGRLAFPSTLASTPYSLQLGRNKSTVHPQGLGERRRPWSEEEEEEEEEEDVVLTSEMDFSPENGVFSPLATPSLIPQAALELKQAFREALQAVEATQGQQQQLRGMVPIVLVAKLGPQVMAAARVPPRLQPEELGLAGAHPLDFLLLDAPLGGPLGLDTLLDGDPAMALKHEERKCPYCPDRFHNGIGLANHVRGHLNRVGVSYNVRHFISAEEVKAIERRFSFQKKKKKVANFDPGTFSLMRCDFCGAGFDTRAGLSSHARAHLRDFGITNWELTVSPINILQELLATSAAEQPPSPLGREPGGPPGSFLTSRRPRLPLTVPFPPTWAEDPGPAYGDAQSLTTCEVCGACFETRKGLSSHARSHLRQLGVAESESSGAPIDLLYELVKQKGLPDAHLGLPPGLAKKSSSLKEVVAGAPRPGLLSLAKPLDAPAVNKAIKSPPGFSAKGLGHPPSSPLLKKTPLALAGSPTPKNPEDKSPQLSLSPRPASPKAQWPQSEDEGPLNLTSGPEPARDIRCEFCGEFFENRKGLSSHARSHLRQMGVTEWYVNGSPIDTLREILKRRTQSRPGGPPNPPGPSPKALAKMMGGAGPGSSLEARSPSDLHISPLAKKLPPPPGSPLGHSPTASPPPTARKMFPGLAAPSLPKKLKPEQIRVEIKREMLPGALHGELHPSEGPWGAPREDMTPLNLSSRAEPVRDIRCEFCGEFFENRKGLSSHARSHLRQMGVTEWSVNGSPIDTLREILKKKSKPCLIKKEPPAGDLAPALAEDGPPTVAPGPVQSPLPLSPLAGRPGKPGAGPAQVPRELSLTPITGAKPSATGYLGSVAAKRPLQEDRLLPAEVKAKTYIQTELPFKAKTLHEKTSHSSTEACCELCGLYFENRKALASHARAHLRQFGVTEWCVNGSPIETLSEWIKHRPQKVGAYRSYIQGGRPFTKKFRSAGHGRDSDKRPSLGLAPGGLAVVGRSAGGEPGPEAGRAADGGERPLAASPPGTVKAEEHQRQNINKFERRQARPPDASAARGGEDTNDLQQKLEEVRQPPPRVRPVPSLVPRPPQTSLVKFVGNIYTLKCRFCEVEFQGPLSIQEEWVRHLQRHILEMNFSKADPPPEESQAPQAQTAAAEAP
T2 sequence (Q96SW2 whole entry, the tested form may be a part): as the sequence (Q96SW2 whole entry, the tested form may be a part) above
T2 sequence (Q16531 whole entry partner, the tested form may be a part): as the sequence (Q16531 whole entry partner, the tested form may be a part) above
Outline: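 293T cells stably carrying a single-copy HiBit-WIZ fusion were exposed to compounds for about 18 hours at 37° C., top concentration 25 μM, 10-point 5-fold series. Lysates were complemented with LgBit and luminescence was read. Amax is the DMSO-normalized, curve-fitted percentage of WIZ-HiBit remaining at 25 uM.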

HBG1/2 = assay: Analysis of HbF gene expression by RNA-seq after CRISPR/Cas9 knockout of WIZ in mPB CD34+ cells; type: cell-based, human; conditions: WIZ KO vs scrambled gRNA control, 7 days erythroid differentiation, FIG. 1A
Protocol: Mobilized peripheral blood (mPB) CD34+ cells (AllCells, LLC) were maintained in StemSpan™ serum-free expansion media (SFEM) ([…] Technologies Inc.) supplemented with 50 ng/mL each of rhTPO, rhlL-6, rhFLT3L, rhSCF for 2-3 days prior to shRNA transduction or targeted ribonucleoprotein (RNP) electroporation targeting WIZ. All cytokines were obtained from Peprotech®, Inc. Cell cultures were maintained at 37° C. and 5% CO2 in a humidified tissue culture incubator.
Alt-R CRISPR-Cas9 crRNA and tracrRNA (5′-[…]-3′; SEQ ID NO: 7) were purchased from Integrated DNA Technologies, Inc. Equimolar tracrRNA was annealed with WIZ targeting crRNA (Table 3) in Tris buffer (10 mM, pH 7.5) by heating at 95° C. for 5 minutes using a polymerase chain reaction (PCR) machine (Bio-Rad) followed by cooling to room temperature on the benchtop. Subsequently, a ribonucleoprotein (RNP) complex was generated by mixing annealed tracrRNA:crRNA with 6 ug of Cas9 at 37° C. for 5 minutes in 1× buffer containing HEPES (100 mM), KCl (50 mM), MgCl2 (2.5 mM), glycerol (0.03%), DTT (1 mM) and Tris pH 7.5 (2 mM). […]
Two independent, targeted CRISPR/Cas9 knockout (KO) of WIZ were done using WIZ_6 and WIZ_18 gRNAs or a non-targeting scrambled gRNA negative control in mPB CD34+ HSCs. […] The quality of isolated RNA was determined before sequencing using Agilent RNA 6000 Pico Kit (Agilent, catalogue #5067-1513). […]

Compound | SALL4 Amax (SALL4) [%] | DC50 (SALL4) [µM] | HbF Amax (Fetal Hemoglobin (HbF)) [%] | HBG1/2 expression upon erythroid differentiation (HBG1/2) | other results
CCN1CCCC[C@@H]1COc1ccc2c(c1)CN(C1CCC(=O)NC1=O)C2=O (mixture of isomers) [Comparative Example 1, 3-(5-(((R)-1-ethylpiperidin-2-yl)methoxy)-1-oxoisoindolin-2-yl)piperidine-2,6-dione, reference compound] | 51.51 | 0.16 | 64.1 | – | –
O=C1CCC(N2Cc3cc(O[C@@H]4CCCN(CC5CC5)C4)ccc3C2=O)C(=O)N1 (stereo partly drawn) [Example 13, 3-(5-(((R)-1-(cyclopropylmethyl)piperidin-3-yl)oxy)-1-oxoisoindolin-2-yl)piperidine-2,6-dione] | 70.82 | 0.14 | – | – | remaining activity at 25 µM (WIZ; HEK-293T; DMSO-normalized, curve-fitted percentage of WIZ-HiBit remaining at 25 uM; read-out: WIZ Amax): 27.6%; Dmax at 25 µM (WIZ; HEK-293T; at 25 uM, 100 − Amax; read-out: % degradation of WIZ (100 − Amax)): 72.4%; DC50 (WIZ; WIZ HiBit assay in 293T cells, about 18 hours, 10-point 5-fold dilution, top 25 μM; read-out: WIZ AC50): 0.014 µM; DC50 (WIZ; updated arithmatic mean over the number of repeats specified, assay of Example 89; read-out: WIZ AC50): 0.021 µM
CCN1C[C@H](Oc2ccc3c(c2)CN(C2CCC(=O)NC2=O)C3=O)CC[C@@H]1C (stereo partly drawn) [Example 41, 3-(5-(((3R,6S)-1-ethyl-6-methylpiperidin-3-yl)oxy)-1-oxoisoindolin-2-yl)piperidine-2,6-dione] | – | – | 73.1 | – | Dmax (WIZ; HEK-293T, read-out: % degradation of WIZ (100 − Amax)): 88.6%; remaining activity at 25 µM (WIZ; HEK-293T, read-out: WIZ Amax): 11.4%; DC50 (WIZ; read-out: WIZ AC50; WIZ HiBit assay in 293T cells, about 18 hours, 10-point 5-fold dilution, top 25 μM): 0.00014 µM
WIZ_6: WIZ targeting crRNA/gRNA, AACATCTTTCGGGCCGTAGG, SEQ ID NO 9 (listed as DNA, chemistry not given here) | – | – | – | upregulation of fetal hemoglobin genes (HBG1/2) | –
WIZ_18: WIZ targeting crRNA/gRNA, AGTGGGTGCGGCACTTACAG, SEQ ID NO 14 (listed as DNA, chemistry not given here) | – | – | – | upregulation of fetal hemoglobin genes (HBG1/2) | –
